Like-named read-outs stand apart in the source and are kept apart here.
Test: Single dose PK in healthy subjects (Cohorts 1, 2, S1 and S2), plasma
Type: in vivo, human
Conditions: human, plasma, iv, healthy subjects
Protocol: This study investigates (i) the safety and tolerability of Compound A (methyl (2R,3S)-3-((methylsulfonyl)amino)-2-(((cis-4-phenylcyclohexyl)oxy)methyl)piperidine-1-carboxylate) when a single dose given as a 9 hour continuous IV infusion is administered to healthy adults, healthy elderly subjects and patients with narcolepsy type 1 (NT1); (ii) the pharmacokinetics of Compound A when a single dose given as a 9 hour continuous IV infusion is administered to healthy adults, healthy elderly subjects and patients with narcolepsy type 1; and (iii) the pharmacodynamics (PD) effects of Compound A, primarily by evaluation of the sleep latency on MWT when a single dose given as a 9 hour continuous IV infusion is administered to patients with narcolepsy type 1.
Pharmacokinetics: Concentrations of Compound A in plasma, and CSF, and pharmacokinetics parameters.
On average, the time to reach the plateau appeared to be approximately 3 to 4 hours after the start of infusion. […] After switching off the IV infusion, Compound A plasma concentrations declined rapidly and in a biphasic manner with a mean terminal disposition phase t1/2z ranging approximately from 3.4 to 5.1 hours across all doses. […] Table 5 provides a summary of plasma concentrations of Compound A after a single IV infusion in healthy subjects. Table 6 provides a summary of pharmacokinetic parameters of Compound A after a single IV infusion in healthy subjects.

**Q.** Which results are given for `COC(=O)N1CCC[C@H](NS(C)(=O)=O)[C@@H]1CO[C@H]1CC[C@@H](c2ccccc2)CC1` [Compound A, methyl (2R,3S)-3-((methylsulfonyl)amino)-2-(((cis-4-phenylcyclohexyl)oxy)methyl)piperidine-1-carboxylate]?
**A.** AUC(0-inf) (14 mg, 14 mg single IV infusion, read-out: AUCinf Median): 322 ng·h/mL; AUC(0-t) (14 mg, 14 mg single IV infusion, read-out: AUClast Geo Mean): 323 ng·h/mL; AUC(0-t) (14 mg, 14 mg single IV infusion, read-out: AUClast Mean): 326 ng·h/mL; AUC(0-t) (14 mg, 14 mg single IV infusion, read-out: AUClast Median): 322 ng·h/mL; clearance (14 mg, 14 mg single IV infusion, read-out: CL Mean (converted)): 718 mL/min; clearance (14 mg, 14 mg single IV infusion, read-out: CL Median (converted)): 723 mL/min; concentration at 9 h (14 mg, 14 mg single IV infusion, read-out: Ceoi Geo Mean): 29.8 ng/mL; concentration at 9 h (14 mg, 14 mg single IV infusion, read-out: Ceoi Mean): 30.1 ng/mL; concentration at 9 h (14 mg, 14 mg single IV infusion, read-out: Ceoi Median): 30.8 ng/mL; Cmax (14 mg, 14 mg single IV infusion, read-out: Cmax Geo Mean): 36.8 ng/mL; Cmax (14 mg, 14 mg single IV infusion, read-out: Cmax Mean): 37 ng/mL; Cmax (14 mg, 14 mg single IV infusion, read-out: Cmax Median): 37 ng/mL; Vd (14 mg, 14 mg single IV infusion, read-out: Vss Mean): 77.1 L; Vd (14 mg, 14 mg single IV infusion, read-out: Vss Median): 72.7 L; Vd (14 mg, 14 mg single IV infusion, read-out: Vz Mean): 272 L; Vd (14 mg, 14 mg single IV infusion, read-out: Vz Median): 253 L; Tmax (14 mg, 14 mg single IV infusion, read-out: tmax Mean): 3.67 h; Tmax (14 mg, 14 mg single IV infusion, read-out: tmax Median): 4 h; AUC (28 mg, 28 mg single IV infusion, read-out: AUC24 Geo Mean): 513 ng·h/mL; AUC (28 mg, 28 mg single IV infusion, read-out: AUC24 Mean): 519 ng·h/mL; AUC (28 mg, 28 mg single IV infusion, read-out: AUC24 Median): 543 ng·h/mL; AUC(0-inf) (28 mg, 28 mg single IV infusion, read-out: AUCinf Geo Mean): 524 ng·h/mL; AUC(0-inf) (28 mg, 28 mg single IV infusion, read-out: AUCinf Mean): 530 ng·h/mL; AUC(0-inf) (28 mg, 28 mg single IV infusion, read-out: AUCinf Median): 549 ng·h/mL; AUC(0-t) (28 mg, 28 mg single IV infusion, read-out: AUClast Geo Mean): 513 ng·h/mL; AUC(0-t) (28 mg, 28 mg single IV infusion, read-out: AUClast Mean): 519 ng·h/mL; AUC(0-t) (28 mg, 28 mg single IV infusion, read-out: AUClast Median): 543 ng·h/mL; clearance (28 mg, 28 mg single IV infusion, read-out: CL Mean (converted)): 903 mL/min; clearance (28 mg, 28 mg single IV infusion, read-out: CL Median (converted)): 850 mL/min; concentration at 9 h (28 mg, 28 mg single IV infusion, read-out: Ceoi Geo Mean): 52.1 ng/mL; concentration at 9 h (28 mg, 28 mg single IV infusion, read-out: Ceoi Mean): 52.5 ng/mL; concentration at 9 h (28 mg, 28 mg single IV infusion, read-out: Ceoi Median): 55.3 ng/mL; Cmax (28 mg, 28 mg single IV infusion, read-out: Cmax Geo Mean): 57.6 ng/mL; Cmax (28 mg, 28 mg single IV infusion, read-out: Cmax Mean): 58.1 ng/mL; Cmax (28 mg, 28 mg single IV infusion, read-out: Cmax Median): 59.3 ng/mL; Vd (28 mg, 28 mg single IV infusion, read-out: Vss Mean): 116 L; Vd (28 mg, 28 mg single IV infusion, read-out: Vss Median): 105 L; Vd (28 mg, 28 mg single IV infusion, read-out: Vz Mean): 392 L; Vd (28 mg, 28 mg single IV infusion, read-out: Vz Median): 406 L; Tmax (28 mg, 28 mg single IV infusion, read-out: tmax Mean): 3 h; Tmax (28 mg, 28 mg single IV infusion, read-out: tmax Median): 3 h; AUC (56 mg, 56 mg single IV infusion, read-out: AUC24 Geo Mean): 1060 ng·h/mL; AUC (56 mg, 56 mg single IV infusion, read-out: AUC24 Mean): 1070 ng·h/mL; AUC (56 mg, 56 mg single IV infusion, read-out: AUC24 Median): 1040 ng·h/mL; AUC(0-inf) (56 mg, 56 mg single IV infusion, read-out: AUCinf Geo Mean): 1060 ng·h/mL; AUC(0-inf) (56 mg, 56 mg single IV infusion, read-out: AUCinf Mean): 1080 ng·h/mL; AUC(0-inf) (56 mg, 56 mg single IV infusion, read-out: AUCinf Median): 1050 ng·h/mL; AUC(0-t) (56 mg, 56 mg single IV infusion, read-out: AUClast Geo Mean): 1060 ng·h/mL; AUC(0-t) (56 mg, 56 mg single IV infusion, read-out: AUClast Mean): 1070 ng·h/mL; AUC(0-t) (56 mg, 56 mg single IV infusion, read-out: AUClast Median): 1040 ng·h/mL; clearance (56 mg, 56 mg single IV infusion, read-out: CL Mean (converted)): 885 mL/min; clearance (56 mg, 56 mg single IV infusion, read-out: CL Median (converted)): 891 mL/min; concentration at 9 h (56 mg, 56 mg single IV infusion, read-out: Ceoi Geo Mean): 115 ng/mL; concentration at 9 h (56 mg, 56 mg single IV infusion, read-out: Ceoi Mean): 115 ng/mL; concentration at 9 h (56 mg, 56 mg single IV infusion, read-out: Ceoi Median): 112 ng/mL; Cmax (56 mg, 56 mg single IV infusion, read-out: Cmax Geo Mean): 123 ng/mL; Cmax (56 mg, 56 mg single IV infusion, read-out: Cmax Mean): 123 ng/mL; Cmax (56 mg, 56 mg single IV infusion, read-out: Cmax Median): 122 ng/mL; Vd (56 mg, 56 mg single IV infusion, read-out: Vss Mean): 91.4 L; Vd (56 mg, 56 mg single IV infusion, read-out: Vss Median): 89.1 L; Vd (56 mg, 56 mg single IV infusion, read-out: Vz Mean): 291 L; Vd (56 mg, 56 mg single IV infusion, read-out: Vz Median): 282 L; Tmax (56 mg, 56 mg single IV infusion, read-out: tmax Mean): 4.5 h; Tmax (56 mg, 56 mg single IV infusion, read-out: tmax Median): 4 h; AUC (112 mg, 112 mg single IV infusion, read-out: AUC24 Geo Mean): 2070 ng·h/mL; AUC (112 mg, 112 mg single IV infusion, read-out: AUC24 Mean): 2090 ng·h/mL; AUC (112 mg, 112 mg single IV infusion, read-out: AUC24 Median): 2130 ng·h/mL; AUC(0-inf) (112 mg, 112 mg single IV infusion, read-out: AUCinf Geo Mean): 2090 ng·h/mL; AUC(0-inf) (112 mg, 112 mg single IV infusion, read-out: AUCinf Mean): 2110 ng·h/mL; AUC(0-inf) (112 mg, 112 mg single IV infusion, read-out: AUCinf Median): 2160 ng·h/mL; AUC(0-t) (112 mg, 112 mg single IV infusion, read-out: AUClast Geo Mean): 2070 ng·h/mL; AUC(0-t) (112 mg, 112 mg single IV infusion, read-out: AUClast Mean): 2090 ng·h/mL; AUC(0-t) (112 mg, 112 mg single IV infusion, read-out: AUClast Median): 2130 ng·h/mL; clearance (112 mg, 112 mg single IV infusion, read-out: CL Mean (converted)): 902 mL/min; clearance (112 mg, 112 mg single IV infusion, read-out: CL Median (converted)): 867 mL/min; concentration at 9 h (112 mg, 112 mg single IV infusion, read-out: Ceoi Geo Mean): 214 ng/mL; concentration at 9 h (112 mg, 112 mg single IV infusion, read-out: Ceoi Mean): 216 ng/mL; concentration at 9 h (112 mg, 112 mg single IV infusion, read-out: Ceoi Median): 221 ng/mL; Cmax (112 mg, 112 mg single IV infusion, read-out: Cmax Geo Mean): 235 ng/mL; Cmax (112 mg, 112 mg single IV infusion, read-out: Cmax Mean): 238 ng/mL; Cmax (112 mg, 112 mg single IV infusion, read-out: Cmax Median): 250 ng/mL; Vd (112 mg, 112 mg single IV infusion, read-out: Vss Mean): 97.8 L; Vd (112 mg, 112 mg single IV infusion, read-out: Vss Median): 104 L; Vd (112 mg, 112 mg single IV infusion, read-out: Vz Mean): 289 L; Vd (112 mg, 112 mg single IV infusion, read-out: Vz Median): 301 L; Tmax (112 mg, 112 mg single IV infusion, read-out: tmax Mean): 4.25 h; Tmax (112 mg, 112 mg single IV infusion, read-out: tmax Median): 4 h; AUC (134.4 mg, 134.4 mg single IV infusion, read-out: AUC24 Geo Mean): 2660 ng·h/mL; AUC (134.4 mg, 134.4 mg single IV infusion, read-out: AUC24 Mean): 2690 ng·h/mL; AUC (134.4 mg, 134.4 mg single IV infusion, read-out: AUC24 Median): 2670 ng·h/mL; AUC(0-inf) (134.4 mg, 134.4 mg single IV infusion, read-out: AUCinf Geo Mean): 2680 ng·h/mL; AUC(0-inf) (134.4 mg, 134.4 mg single IV infusion, read-out: AUCinf Mean): 2720 ng·h/mL; AUC(0-inf) (134.4 mg, 134.4 mg single IV infusion, read-out: AUCinf Median): 2680 ng·h/mL; AUC(0-t) (134.4 mg, 134.4 mg single IV infusion, read-out: AUClast Geo Mean): 2660 ng·h/mL; AUC(0-t) (134.4 mg, 134.4 mg single IV infusion, read-out: AUClast Mean): 2690 ng·h/mL; AUC(0-t) (134.4 mg, 134.4 mg single IV infusion, read-out: AUClast Median): 2670 ng·h/mL; clearance (134.4 mg, 134.4 mg single IV infusion, read-out: CL Mean (converted)): 848 mL/min; clearance (134.4 mg, 134.4 mg single IV infusion, read-out: CL Median (converted)): 839 mL/min; concentration at 9 h (134.4 mg, 134.4 mg single IV infusion, read-out: Ceoi Geo Mean): 290 ng/mL; concentration at 9 h (134.4 mg, 134.4 mg single IV infusion, read-out: Ceoi Mean): 292 ng/mL; concentration at 9 h (134.4 mg, 134.4 mg single IV infusion, read-out: Ceoi Median): 300 ng/mL

Source: patent US20220339143A1, “TAK-925 FOR USE IN TREATING NARCOLEPSY” (Takeda Pharmaceutical Company Limited, priority 2019, published 2022)
